The record followed here is patent publication US20230097085A1, “[6R]-MTHF IN 5-FU BASED CHEMOTHERAPY OF RIGHT-SIDED COLORECTAL CANCER” (Isofol Medical AB, priority 2021, published 2023).

This test concerns solid colorectal cancer tumors (metastatic colorectal cancer). The test can be described thus: Clinical study ISO-CC-005 (safety extension cohorts #18/#19 and Follow-up study): tumour response by CT/MRI per RECIST 1.1. Type of test: in vivo, human. From the text: As used herein, the term ORR shall refer to the Objective Response Rate, ie. the proportion of patients with reduction in tumor burden of a predefined amount. […] (Note: the appearance of one or more new lesions is also considered progression). […] 2019. The completion of the study was announced in January 2020. In total, 105 patients were included in the study. Applicant completed the dose definition part of ISO-CC-005 in March 2018, which evaluated the safety and efficacy of arfolitixorin in patients with mCRC. Shortly after, applicant started two additional treatment groups in 2018 to generate more safety and efficacy data, i.e. the safety extension Cohort #18 (Treatment Arm #4) and Cohort #19 (Treatment Arm #6). The aim was to evaluate as many patients as possible from the additional treatment groups after a treatment period of 16 weeks+. On 30 Sep. 2020, applicant announced response assessment data from the two safety extension cohorts (31 patients) treated for 16 weeks or longer (press release: 55% Overall Response Rate on the safety extension cohorts of the ISO-CC-005 Phase Ulla study BioSpace). […] Out of the 31 patients, 17 were treated with an ARFOX regimen. Clinical Study ISO-CC-005 was an exploratory, […] multiple-centre study to be carried out in Stadium IV CRC patients. […] In the Main Study, patients received study treatment with arfolitixorin during eight (8) weeks. Patients eligible for the Follow-up study could participate until reaching progress, but no longer than 18 months. Enrolled patients, stadium IV CRC patients, were aware of the relatively poor prognosis of their disease. Those patients who could continue benefitting from treatment with a […] effective therapy, were offered the possibility to continue study treatment by participating in the Follow-up Study. In the Follow-up Study patients continued to receive the same treatment as assigned during the Main Study period. However, the Investigator could complete the allocated treatment with other therapeutic agents of choice in alignment with standard of care in order to adapt treatment to the patient's specific needs and, in this way, provide optimal care. Response was measured in short- and long-term assessments. During the Main Study phase, only short-term assessments of tumour response were explored by means of objective response rate (ORR) and early tumour shrinkage (ETS). These assessments were to be used as indicators of prognostic factor in ascertaining earlier non responders and to explore the correlation to other factors such as folate levels, tumour biomarkers, or expression levels of certain key genes. […]

As for `Nc1nc2c(c(=O)[nH]1)N1CN(c3ccc(C(=O)N[C@@H](CCC(=O)O)C(=O)O)cc3)C[C@H]1CN2` [arfolitixorin, [6R]-5,10-methylenetetrahydrofolate], where the note is “31 patients of the two safety extension cohorts treated 16 weeks or longer, 120 mg/m2 arfolitixorin + 5-FU with irinotecan or oxaliplatin (ARFIRI/ARFOX)”, the “best overall response rate (ORR)” value was 55%. The “progression of solid tumors between 8 and 16 weeks after initiating treatment” value ([6R]-MTHF and 5-FU, treatment period of at least 8 weeks, Phase I/IIa study ISO-CC-005) is listed as “No statistically significant progression”. Also, under “right-sided CRC patients (13) of the 31-patient group, after 16 weeks and beyond, 120 mg/m2 arfolitixorin + 5-FU + irinotecan or oxaliplatin”, the “best ORR in patients diagnosed with RCRC” value was 46%. Also, the “best ORRs (objective response rates) that can be achieved” value (right-sided CRC patients incl. BRAF/KRAS mutation-positive, protocol over at least 16 weeks with multiple rapid boluses) was over 50%.
